Laboratory results taken from ChEMBL document CHEMBL3991601, “The target landscape of clinical kinase drugs” (Science, 2017).
Calls of active or inactive are those of the source. Cut-off read from the data, not from the text of the source, for most assays here: actives have a measured Kd and inactives only a lower limit.

Legend:
[1] = biological target: S-adenosylmethionine synthase isoform type-2 (Homo sapiens, UniProt P31153)
[2] = biological target: Phosphatidylethanolamine-binding protein 1 (Homo sapiens, UniProt P30086)
Chain of Phosphatidylethanolamine-binding protein 1 (P30086 whole entry): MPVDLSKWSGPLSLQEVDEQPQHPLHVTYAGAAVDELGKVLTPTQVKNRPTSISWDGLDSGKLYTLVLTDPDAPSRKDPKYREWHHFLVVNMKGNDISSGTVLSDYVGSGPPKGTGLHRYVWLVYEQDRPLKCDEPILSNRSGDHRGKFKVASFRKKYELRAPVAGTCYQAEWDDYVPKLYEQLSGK

[3] = biological target: T1, Exosome RNA helicase MTR4 (Homo sapiens, UniProt P42285)
T1 sequence (P42285 whole entry): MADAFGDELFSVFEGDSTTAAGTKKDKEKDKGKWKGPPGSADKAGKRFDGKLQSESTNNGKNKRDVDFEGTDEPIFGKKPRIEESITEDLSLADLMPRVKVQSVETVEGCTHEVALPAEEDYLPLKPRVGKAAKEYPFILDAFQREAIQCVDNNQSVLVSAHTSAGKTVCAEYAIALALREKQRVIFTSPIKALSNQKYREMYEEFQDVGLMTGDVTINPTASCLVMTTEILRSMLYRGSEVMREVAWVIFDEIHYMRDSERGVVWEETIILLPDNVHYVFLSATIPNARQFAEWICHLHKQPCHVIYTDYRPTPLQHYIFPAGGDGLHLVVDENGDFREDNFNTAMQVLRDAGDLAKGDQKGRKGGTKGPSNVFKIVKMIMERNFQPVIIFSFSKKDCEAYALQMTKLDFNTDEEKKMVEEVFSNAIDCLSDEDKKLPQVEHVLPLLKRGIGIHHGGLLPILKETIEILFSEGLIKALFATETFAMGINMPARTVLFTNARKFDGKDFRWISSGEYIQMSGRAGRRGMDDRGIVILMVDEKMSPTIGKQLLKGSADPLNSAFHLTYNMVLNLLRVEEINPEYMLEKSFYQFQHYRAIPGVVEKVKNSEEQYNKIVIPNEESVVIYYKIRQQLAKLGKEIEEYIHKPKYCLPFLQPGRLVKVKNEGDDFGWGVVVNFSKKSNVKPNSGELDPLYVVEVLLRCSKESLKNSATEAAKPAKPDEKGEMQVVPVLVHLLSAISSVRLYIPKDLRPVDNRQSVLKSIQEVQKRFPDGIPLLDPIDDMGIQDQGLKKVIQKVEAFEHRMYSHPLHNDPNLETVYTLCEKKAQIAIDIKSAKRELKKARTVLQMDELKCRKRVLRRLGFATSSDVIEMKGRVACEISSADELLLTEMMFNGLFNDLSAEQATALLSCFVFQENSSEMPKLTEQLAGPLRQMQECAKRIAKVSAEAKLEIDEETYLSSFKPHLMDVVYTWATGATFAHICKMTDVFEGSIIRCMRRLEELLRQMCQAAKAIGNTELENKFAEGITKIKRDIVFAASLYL

[4] = biological target: Serine/threonine-protein kinase pim-1 (Homo sapiens, UniProt P11309)
Chain of Serine/threonine-protein kinase pim-1 (P11309 whole entry): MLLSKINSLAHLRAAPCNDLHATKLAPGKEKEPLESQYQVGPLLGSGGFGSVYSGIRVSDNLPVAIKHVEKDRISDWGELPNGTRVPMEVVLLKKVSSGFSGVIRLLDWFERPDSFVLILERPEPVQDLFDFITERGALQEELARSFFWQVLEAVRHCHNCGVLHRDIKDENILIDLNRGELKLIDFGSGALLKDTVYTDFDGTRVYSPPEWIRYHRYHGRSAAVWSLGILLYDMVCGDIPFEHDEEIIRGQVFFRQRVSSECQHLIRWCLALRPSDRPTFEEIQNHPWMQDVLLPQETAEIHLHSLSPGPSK

[5] = biological target: Ribosomal protein S6 kinase alpha-1 (Homo sapiens, UniProt Q15418)
Chain of Ribosomal protein S6 kinase alpha-1 (Q15418 whole entry): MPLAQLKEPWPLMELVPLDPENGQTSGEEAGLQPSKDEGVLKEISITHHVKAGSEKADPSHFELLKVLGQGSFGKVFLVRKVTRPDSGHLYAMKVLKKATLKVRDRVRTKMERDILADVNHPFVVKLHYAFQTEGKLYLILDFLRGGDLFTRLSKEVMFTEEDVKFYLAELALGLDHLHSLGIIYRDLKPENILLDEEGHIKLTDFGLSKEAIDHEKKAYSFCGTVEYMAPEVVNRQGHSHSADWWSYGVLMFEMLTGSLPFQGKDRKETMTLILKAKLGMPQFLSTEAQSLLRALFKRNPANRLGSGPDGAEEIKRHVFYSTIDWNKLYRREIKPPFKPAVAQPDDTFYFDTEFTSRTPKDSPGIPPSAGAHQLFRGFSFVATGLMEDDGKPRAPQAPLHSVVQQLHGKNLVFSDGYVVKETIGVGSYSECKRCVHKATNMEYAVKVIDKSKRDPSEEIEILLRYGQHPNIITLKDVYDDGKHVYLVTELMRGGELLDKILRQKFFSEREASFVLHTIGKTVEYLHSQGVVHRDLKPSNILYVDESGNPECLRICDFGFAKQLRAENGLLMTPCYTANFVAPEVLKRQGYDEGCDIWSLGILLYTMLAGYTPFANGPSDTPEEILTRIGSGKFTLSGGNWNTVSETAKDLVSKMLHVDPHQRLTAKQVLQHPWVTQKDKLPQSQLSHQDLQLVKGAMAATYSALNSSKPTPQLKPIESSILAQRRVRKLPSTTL

[6] = biological target: STE20-like serine/threonine-protein kinase (Homo sapiens, UniProt Q9H2G2)
[7] = biological target: Mitogen-activated protein kinase kinase kinase 1 (Homo sapiens, UniProt Q13233)
Chain of Mitogen-activated protein kinase kinase kinase 1 (Q13233 whole entry): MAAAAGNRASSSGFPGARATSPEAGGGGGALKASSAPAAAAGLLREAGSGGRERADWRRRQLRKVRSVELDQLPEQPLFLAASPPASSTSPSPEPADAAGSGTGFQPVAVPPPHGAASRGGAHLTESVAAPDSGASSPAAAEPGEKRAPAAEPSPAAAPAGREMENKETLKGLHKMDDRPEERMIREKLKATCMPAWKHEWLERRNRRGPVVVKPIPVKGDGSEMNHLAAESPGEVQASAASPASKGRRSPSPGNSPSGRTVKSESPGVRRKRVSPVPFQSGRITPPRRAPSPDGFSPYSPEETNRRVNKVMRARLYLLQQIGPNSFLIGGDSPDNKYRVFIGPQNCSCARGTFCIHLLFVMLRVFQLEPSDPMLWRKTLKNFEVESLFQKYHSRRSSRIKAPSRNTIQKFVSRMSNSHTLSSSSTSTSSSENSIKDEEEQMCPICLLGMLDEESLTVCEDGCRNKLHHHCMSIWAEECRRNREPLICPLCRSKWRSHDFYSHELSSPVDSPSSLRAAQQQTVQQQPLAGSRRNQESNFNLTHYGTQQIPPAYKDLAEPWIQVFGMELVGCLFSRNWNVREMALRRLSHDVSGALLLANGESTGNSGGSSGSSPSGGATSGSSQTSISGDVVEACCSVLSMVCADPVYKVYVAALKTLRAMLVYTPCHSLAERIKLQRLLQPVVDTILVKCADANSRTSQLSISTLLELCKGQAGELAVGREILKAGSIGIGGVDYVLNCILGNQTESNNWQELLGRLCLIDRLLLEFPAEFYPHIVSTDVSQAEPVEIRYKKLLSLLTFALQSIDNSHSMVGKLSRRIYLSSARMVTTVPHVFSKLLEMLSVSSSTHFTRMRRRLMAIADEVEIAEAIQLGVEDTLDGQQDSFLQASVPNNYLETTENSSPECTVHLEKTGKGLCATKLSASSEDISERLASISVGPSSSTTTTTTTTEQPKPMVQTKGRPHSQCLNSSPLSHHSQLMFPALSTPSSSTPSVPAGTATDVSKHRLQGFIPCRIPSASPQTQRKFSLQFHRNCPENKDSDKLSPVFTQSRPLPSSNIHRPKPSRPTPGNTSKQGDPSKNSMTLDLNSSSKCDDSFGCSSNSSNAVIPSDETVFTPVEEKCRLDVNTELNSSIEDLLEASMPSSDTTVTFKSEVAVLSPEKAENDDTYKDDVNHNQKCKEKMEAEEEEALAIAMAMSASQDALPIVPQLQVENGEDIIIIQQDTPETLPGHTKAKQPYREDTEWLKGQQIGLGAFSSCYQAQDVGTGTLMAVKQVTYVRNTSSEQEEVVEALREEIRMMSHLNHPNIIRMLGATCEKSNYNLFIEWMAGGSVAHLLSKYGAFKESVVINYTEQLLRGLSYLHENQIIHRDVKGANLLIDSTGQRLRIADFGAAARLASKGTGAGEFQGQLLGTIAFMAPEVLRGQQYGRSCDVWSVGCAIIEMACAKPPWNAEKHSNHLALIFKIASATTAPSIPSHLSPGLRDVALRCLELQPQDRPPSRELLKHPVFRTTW

[8] = biological target: BMP-2-inducible protein kinase (Homo sapiens, UniProt Q9NSY1)
[9] = biological target: Rho-associated protein kinase 2 (Homo sapiens, UniProt O75116)
Chain of Rho-associated protein kinase 2 (O75116 whole entry): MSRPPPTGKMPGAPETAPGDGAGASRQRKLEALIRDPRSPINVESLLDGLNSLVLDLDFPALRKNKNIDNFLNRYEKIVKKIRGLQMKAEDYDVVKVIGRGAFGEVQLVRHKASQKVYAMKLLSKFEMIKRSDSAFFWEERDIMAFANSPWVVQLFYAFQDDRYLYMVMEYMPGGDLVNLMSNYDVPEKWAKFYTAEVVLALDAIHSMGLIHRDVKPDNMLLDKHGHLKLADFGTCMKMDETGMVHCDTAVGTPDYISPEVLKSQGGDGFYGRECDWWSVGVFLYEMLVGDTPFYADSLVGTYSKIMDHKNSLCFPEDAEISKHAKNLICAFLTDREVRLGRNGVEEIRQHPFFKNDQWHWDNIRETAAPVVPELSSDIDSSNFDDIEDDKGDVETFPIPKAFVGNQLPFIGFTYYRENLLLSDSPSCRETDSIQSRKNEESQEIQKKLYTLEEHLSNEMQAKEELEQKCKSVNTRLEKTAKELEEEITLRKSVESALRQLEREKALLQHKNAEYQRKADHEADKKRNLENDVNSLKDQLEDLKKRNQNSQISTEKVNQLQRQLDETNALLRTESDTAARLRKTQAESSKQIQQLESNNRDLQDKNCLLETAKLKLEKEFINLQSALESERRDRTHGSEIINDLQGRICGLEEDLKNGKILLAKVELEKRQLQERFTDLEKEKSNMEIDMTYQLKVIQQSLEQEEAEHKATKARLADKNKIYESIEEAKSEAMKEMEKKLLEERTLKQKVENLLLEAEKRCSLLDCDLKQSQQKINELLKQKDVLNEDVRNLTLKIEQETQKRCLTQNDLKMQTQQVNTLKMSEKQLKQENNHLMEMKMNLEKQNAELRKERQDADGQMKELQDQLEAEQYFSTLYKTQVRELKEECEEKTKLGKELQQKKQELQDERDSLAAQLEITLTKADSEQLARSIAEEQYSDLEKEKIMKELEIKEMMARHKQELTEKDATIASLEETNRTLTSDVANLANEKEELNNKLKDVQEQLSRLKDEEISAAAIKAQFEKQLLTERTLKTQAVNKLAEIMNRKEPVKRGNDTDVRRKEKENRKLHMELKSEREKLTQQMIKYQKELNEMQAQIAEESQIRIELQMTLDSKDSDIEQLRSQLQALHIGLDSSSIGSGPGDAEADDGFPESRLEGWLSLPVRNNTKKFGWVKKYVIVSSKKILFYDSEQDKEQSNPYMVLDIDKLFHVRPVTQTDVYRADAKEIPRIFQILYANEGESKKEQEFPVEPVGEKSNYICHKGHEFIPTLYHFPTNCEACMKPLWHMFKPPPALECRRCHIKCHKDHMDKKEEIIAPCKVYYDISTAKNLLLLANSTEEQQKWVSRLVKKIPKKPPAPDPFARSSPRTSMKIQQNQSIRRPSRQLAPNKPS

[10] = biological target: Dual specificity tyrosine-phosphorylation-regulated kinase 1A (Homo sapiens, UniProt Q13627)
[11] = biological target: Cyclin-dependent kinase 17 (Homo sapiens, UniProt Q00537)
Chain of Cyclin-dependent kinase 17 (Q00537 whole entry): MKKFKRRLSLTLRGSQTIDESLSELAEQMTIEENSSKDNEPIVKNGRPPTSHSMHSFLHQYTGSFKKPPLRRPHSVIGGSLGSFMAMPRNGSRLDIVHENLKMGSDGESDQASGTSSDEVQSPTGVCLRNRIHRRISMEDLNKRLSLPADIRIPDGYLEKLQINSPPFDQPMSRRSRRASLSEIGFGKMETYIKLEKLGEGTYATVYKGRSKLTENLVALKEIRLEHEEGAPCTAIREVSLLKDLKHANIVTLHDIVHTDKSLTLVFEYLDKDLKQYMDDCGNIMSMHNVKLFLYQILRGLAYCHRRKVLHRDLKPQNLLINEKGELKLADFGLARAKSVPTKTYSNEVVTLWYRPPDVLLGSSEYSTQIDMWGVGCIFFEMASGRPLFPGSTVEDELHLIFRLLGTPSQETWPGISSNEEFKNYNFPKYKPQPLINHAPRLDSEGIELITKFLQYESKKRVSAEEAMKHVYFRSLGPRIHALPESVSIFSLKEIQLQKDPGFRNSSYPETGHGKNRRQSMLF

[12] = biological target: T2, Phosphatidylinositol 5-phosphate 4-kinase type-2 alpha (Homo sapiens, UniProt P48426)
T2 sequence (P48426 whole entry): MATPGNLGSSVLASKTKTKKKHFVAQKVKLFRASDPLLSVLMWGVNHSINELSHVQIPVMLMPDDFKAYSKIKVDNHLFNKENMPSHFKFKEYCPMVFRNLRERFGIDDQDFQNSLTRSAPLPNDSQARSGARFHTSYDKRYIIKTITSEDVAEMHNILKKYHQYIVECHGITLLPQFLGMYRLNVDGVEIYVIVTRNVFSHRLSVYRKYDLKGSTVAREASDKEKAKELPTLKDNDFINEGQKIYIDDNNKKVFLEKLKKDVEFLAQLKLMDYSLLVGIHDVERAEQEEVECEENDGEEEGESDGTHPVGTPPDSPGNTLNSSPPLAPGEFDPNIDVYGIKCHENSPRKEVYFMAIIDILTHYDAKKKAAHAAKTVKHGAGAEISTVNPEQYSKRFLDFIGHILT
Note: in the data inactive means no Kd found up to 30 µM.

Chain of S-adenosylmethionine synthase isoform type-2 (P31153 whole entry, canonical isoform): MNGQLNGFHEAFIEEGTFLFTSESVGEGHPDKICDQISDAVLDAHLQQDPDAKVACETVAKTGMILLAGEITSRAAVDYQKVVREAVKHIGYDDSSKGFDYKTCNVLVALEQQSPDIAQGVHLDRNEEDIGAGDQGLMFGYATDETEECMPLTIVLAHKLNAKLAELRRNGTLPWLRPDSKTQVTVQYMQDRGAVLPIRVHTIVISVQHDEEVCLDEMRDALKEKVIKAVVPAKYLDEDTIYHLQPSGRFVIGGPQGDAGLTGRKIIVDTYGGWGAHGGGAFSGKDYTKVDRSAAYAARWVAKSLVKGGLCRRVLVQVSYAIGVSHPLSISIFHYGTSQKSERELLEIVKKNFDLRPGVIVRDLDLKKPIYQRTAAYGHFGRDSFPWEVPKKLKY

C[C@@H](Oc1cc(C(=O)Nc2ccc(C(=O)N3CCN(C)CC3)cc2)nnc1N)c1c(Cl)ccc(F)c1Cl
Kd [1]: > 30 µM (inactive) | Kd [2]: > 30 µM (inactive) | Kd [3]: > 30 µM (inactive) | Kd [4]: > 30 µM (inactive) | Kd [5]: > 30 µM (inactive) | Kd [6]: > 30 µM (inactive) | Kd [7]: 2.19 µM (active) | Kd [8]: > 30 µM (inactive) | Kd [9]: > 30 µM (inactive) | Kd [10]: > 30 µM (inactive)

CC(=O)c1cnc2ccc(-c3cc(Cl)c(O)c(Cl)c3)nc2c1N[C@H]1CC[C@H](CN(C)C)CC1
Kd [1]: > 30 µM (inactive) | Kd [11]: > 30 µM (inactive) | Kd [2]: > 30 µM (inactive) | Kd [3]: > 30 µM (inactive) | Kd [4]: 0.014 µM (active) | Kd [5]: 0.251 µM (active) | Kd [6]: 0.113 µM (active) | Kd [7]: > 30 µM (inactive) | Kd [12]: > 30 µM (inactive) | Kd [8]: 0.245 µM (active) | Kd [9]: > 30 µM (inactive) | Kd [10]: 0.01 µM (active)

Nc1ncnc2c1c(-c1cccc(OCc3ccccc3)c1)cn2[C@H]1C[C@@H](CN2CCC2)C1 [AEW-541]
Kd [11]: > 30 µM (inactive) | Kd [3]: > 30 µM (inactive) | Kd [4]: > 30 µM (inactive) | Kd [5]: > 30 µM (inactive) | Kd [6]: > 30 µM (inactive) | Kd [7]: > 30 µM (inactive) | Kd [8]: > 30 µM (inactive) | Kd [9]: 18.3 µM (active) | Kd [10]: > 30 µM (inactive)

C=CC(=O)Nc1cc2c(Nc3ccc(F)c(Cl)c3)ncnc2cc1C#CC(C)(C)N1CCN(C)CC1 [AV-412 FREE BASE]
Kd [1]: > 30 µM (inactive) | Kd [3]: > 30 µM (inactive) | Kd [4]: > 30 µM (inactive) | Kd [5]: > 30 µM (inactive) | Kd [6]: 13.4 µM (active) | Kd [7]: 7.96 µM (active) | Kd [12]: > 30 µM (inactive) | Kd [8]: > 30 µM (inactive) | Kd [9]: > 30 µM (inactive) | Kd [10]: > 30 µM (inactive)

COc1cc([C@@H]2c3cc4c(cc3[C@H](O)[C@H]3COC(=O)[C@@H]23)OCO4)cc(OC)c1OC [AXL-1717]
Kd [1]: > 30 µM (inactive) | Kd [11]: > 30 µM (inactive) | Kd [2]: > 30 µM (inactive) | Kd [3]: > 30 µM (inactive) | Kd [4]: > 30 µM (inactive) | Kd [5]: > 30 µM (inactive) | Kd [6]: > 30 µM (inactive) | Kd [7]: > 30 µM (inactive) | Kd [12]: > 30 µM (inactive) | Kd [8]: > 30 µM (inactive) | Kd [9]: > 30 µM (inactive) | Kd [10]: > 30 µM (inactive)

COc1c(OCCCN2CCOCC2)ccc2c1N=C(NC(=O)c1cnc(N)nc1)N1CCN=C21 [COPANLISIB]
Kd [1]: > 30 µM (inactive) | Kd [11]: > 30 µM (inactive) | Kd [2]: > 30 µM (inactive) | Kd [3]: > 30 µM (inactive) | Kd [4]: > 30 µM (inactive) | Kd [5]: > 30 µM (inactive) | Kd [6]: > 30 µM (inactive) | Kd [7]: > 30 µM (inactive) | Kd [12]: > 30 µM (inactive) | Kd [8]: > 30 µM (inactive) | Kd [9]: > 30 µM (inactive) | Kd [10]: > 30 µM (inactive)

Cn1cc(C2=C(c3cn(C4CCN(Cc5ccccn5)CC4)c4ccccc34)C(=O)NC2=O)c2ccccc21 [ENZASTAURIN]
Kd [1]: > 30 µM (inactive) | Kd [2]: > 30 µM (inactive) | Kd [3]: > 30 µM (inactive) | Kd [12]: > 30 µM (inactive)

Cc1nc2cc(-n3ncc(C(=O)c4cc5ccccc5[nH]4)c3N)ccc2[nH]1 [FGFR INHIBITOR DEBIO 1347]
Kd [1]: > 30 µM (inactive) | Kd [11]: > 30 µM (inactive) | Kd [2]: > 30 µM (inactive) | Kd [3]: > 30 µM (inactive) | Kd [4]: > 30 µM (inactive) | Kd [5]: > 30 µM (inactive) | Kd [6]: > 30 µM (inactive) | Kd [7]: > 30 µM (inactive) | Kd [8]: > 30 µM (inactive) | Kd [9]: > 30 µM (inactive) | Kd [10]: > 30 µM (inactive)

O=C(Nc1nc2cccc(-c3ccc(CN4CCS(=O)(=O)CC4)cc3)n2n1)C1CC1 [FILGOTINIB]
Kd [1]: > 30 µM (inactive) | Kd [11]: > 30 µM (inactive) | Kd [2]: > 30 µM (inactive) | Kd [3]: > 30 µM (inactive) | Kd [4]: > 30 µM (inactive) | Kd [5]: > 30 µM (inactive) | Kd [6]: 9.27 µM (active) | Kd [7]: > 30 µM (inactive) | Kd [12]: > 30 µM (inactive) | Kd [8]: 6.59 µM (active) | Kd [9]: > 30 µM (inactive) | Kd [10]: > 30 µM (inactive)

Cc1cccc(-c2nn3c(c2-c2ccnc4ccc(C(N)=O)cc24)CCC3)n1 [GALUNISERTIB]
Kd [1]: > 30 µM (inactive) | Kd [11]: > 30 µM (inactive) | Kd [2]: > 30 µM (inactive) | Kd [3]: > 30 µM (inactive) | Kd [4]: > 30 µM (inactive) | Kd [5]: > 30 µM (inactive) | Kd [6]: > 30 µM (inactive) | Kd [7]: > 30 µM (inactive) | Kd [12]: > 30 µM (inactive) | Kd [8]: > 30 µM (inactive) | Kd [9]: > 30 µM (inactive) | Kd [10]: > 30 µM (inactive)

CCn1cc(-c2ccnc3[nH]c(-c4cccc(CN(C)C)c4)cc23)c(-c2ccc(NC(=O)N(C)C)cc2)n1 [GSK-1070916]
Kd [11]: > 30 µM (inactive) | Kd [3]: > 30 µM (inactive) | Kd [4]: > 30 µM (inactive) | Kd [6]: > 30 µM (inactive) | Kd [7]: > 30 µM (inactive) | Kd [12]: > 30 µM (inactive) | Kd [9]: 2.4 µM (active) | Kd [10]: > 30 µM (inactive)

CNC(=O)c1nn(C)c2c1C(C)(C)Cc1cnc(Nc3ccc(N4CCN(C)CC4)cc3)nc1-2 [MILCICLIB]
Kd [1]: > 30 µM (inactive) | Kd [3]: > 30 µM (inactive) | Kd [4]: > 30 µM (inactive) | Kd [5]: > 30 µM (inactive) | Kd [6]: > 30 µM (inactive) | Kd [7]: > 30 µM (inactive) | Kd [12]: > 30 µM (inactive) | Kd [8]: > 30 µM (inactive) | Kd [9]: > 30 µM (inactive) | Kd [10]: 0.105 µM (active)

COc1ncc(-c2ccc3nccc(-c4ccnnc4)c3c2)cc1NS(=O)(=O)c1ccc(F)cc1F [OMIPALISIB]
Kd [1]: > 30 µM (inactive) | Kd [11]: > 30 µM (inactive) | Kd [2]: > 30 µM (inactive) | Kd [3]: > 30 µM (inactive) | Kd [5]: > 30 µM (inactive) | Kd [6]: > 30 µM (inactive) | Kd [7]: > 30 µM (inactive) | Kd [12]: > 30 µM (inactive) | Kd [8]: > 30 µM (inactive) | Kd [9]: > 30 µM (inactive) | Kd [10]: > 30 µM (inactive)

O=C(NOCCO)c1cc(CN2OCCCC2=O)c(F)c(F)c1Nc1ccc(I)cc1F [RO-4987655]
Kd [1]: > 30 µM (inactive) | Kd [2]: > 30 µM (inactive) | Kd [3]: > 30 µM (inactive) | Kd [12]: > 30 µM (inactive)

CCS(=O)(=O)c1cccc(-c2cc(C(=O)NC3CCN(C)CC3)c(C)c3[nH]c4ncc(C)cc4c23)c1 [TAK-901]
Kd [1]: > 30 µM (inactive) | Kd [11]: > 30 µM (inactive) | Kd [2]: > 30 µM (inactive) | Kd [3]: > 30 µM (inactive) | Kd [4]: > 30 µM (inactive) | Kd [6]: 1.35 µM (active) | Kd [7]: > 30 µM (inactive) | Kd [12]: > 30 µM (inactive) | Kd [8]: 0.695 µM (active) | Kd [9]: > 30 µM (inactive) | Kd [10]: > 30 µM (inactive)

Cn1ncc(Cl)c1-c1cc(C(=O)N[C@H](CN)Cc2ccc(F)c(F)c2)oc1Cl [UPROSERTIB]
Kd [1]: > 30 µM (inactive) | Kd [2]: > 30 µM (inactive) | Kd [3]: > 30 µM (inactive) | Kd [4]: > 30 µM (inactive) | Kd [5]: > 30 µM (inactive) | Kd [6]: > 30 µM (inactive) | Kd [7]: > 30 µM (inactive) | Kd [12]: > 30 µM (inactive) | Kd [8]: > 30 µM (inactive) | Kd [9]: 2.28 µM (active) | Kd [10]: 0.238 µM

C[C@@H](N)c1ccc(C(=O)Nc2ccnc3[nH]ccc23)cc1 [Y-39983]
Kd [1]: > 30 µM (inactive) | Kd [11]: > 30 µM (inactive) | Kd [2]: > 30 µM (inactive) | Kd [3]: > 30 µM (inactive) | Kd [4]: > 30 µM (inactive) | Kd [5]: > 30 µM (inactive) | Kd [6]: > 30 µM (inactive) | Kd [7]: > 30 µM (inactive) | Kd [12]: > 30 µM (inactive) | Kd [8]: 0.179 µM (active) | Kd [10]: > 30 µM (inactive)
